Ki data for 25 compounds are collected here from US9518060B2, “Substituted pyrrolo[3,4-c]pyrazoles as PKC kinase inhibitors” (PFIZER INC., priority 2007, dated 2016).

Molecules are shown by their SMILES. Where a name gives a salt, the structure may show the parent alone. Some results are limits rather than exact numbers.

The target of this experiment is Protein Kinase C beta 2 (PKCβII) (Homo sapiens (Human), UniProt P05771). Nature of the experiment: PKCβII coupled spectrophotometric kinase assay (PK/LDH, NADH absorbance at 340 nm). The note with it: apparent Ki, ATP competitive inhibition model (Morrison equation); 0.1 mM ATP, 5 nM PKC, 30° C.; read-out: Ki app. In kind it is biochemical. Summed up: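 PK/LDH-coupled ADP detection (NADH loss at 340 nm), 20 min at 30° C, pH 7.4; 5 nM PKCβII, 0.15 mM pseudosubstrate peptide, 0.1 mM ATP, with CaCl2, PS and PMA activators, 7.5% DMSO. Apparent Ki from initial velocities fitted to ATP-competitive Morrison model over 10,000–0.169 nM inhibitor.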
Protein Kinase C beta 2 (PKCβII), sequence (P05771 other isoform, or with tags, fused parts or gaps): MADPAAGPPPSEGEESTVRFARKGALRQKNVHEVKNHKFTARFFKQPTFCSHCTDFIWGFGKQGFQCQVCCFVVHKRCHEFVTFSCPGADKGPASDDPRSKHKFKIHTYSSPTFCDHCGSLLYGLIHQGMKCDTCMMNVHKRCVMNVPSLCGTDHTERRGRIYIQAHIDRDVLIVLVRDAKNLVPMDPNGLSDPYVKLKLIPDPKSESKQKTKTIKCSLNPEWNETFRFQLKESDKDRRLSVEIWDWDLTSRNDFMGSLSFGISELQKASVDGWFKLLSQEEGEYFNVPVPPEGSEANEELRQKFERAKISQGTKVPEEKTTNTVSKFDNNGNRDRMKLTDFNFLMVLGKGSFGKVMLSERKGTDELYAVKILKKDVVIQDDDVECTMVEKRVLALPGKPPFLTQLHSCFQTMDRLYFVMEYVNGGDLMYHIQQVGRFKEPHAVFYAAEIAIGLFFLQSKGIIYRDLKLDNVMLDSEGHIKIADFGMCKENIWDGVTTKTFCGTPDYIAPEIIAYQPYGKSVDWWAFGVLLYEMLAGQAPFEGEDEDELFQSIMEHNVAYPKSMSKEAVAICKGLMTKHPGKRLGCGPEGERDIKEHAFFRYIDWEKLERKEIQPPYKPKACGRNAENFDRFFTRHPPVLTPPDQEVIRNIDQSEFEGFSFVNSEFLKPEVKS
As for `COCCCOc1ncc(F)c(Nc2n[nH]c3c2CN(C(=O)C2(F)CCN(C)CC2)C3(C)C)n1` [Example L3, N-[5-fluoro-2-(3-methoxypropoxy)pyrimidin-4-yl]-5-[(4-fluoro-1-methylpiperidin-4-yl)carbonyl]-6,6-dimethyl-1,4,5,6-tetrahydropyrrolo[3,4-c]pyrazol-3-amine], the Ki was 58.6 nM. Consider `CCOc1nccc(Nc2n[nH]c3c2CN(C(=O)N2C[C@@H](C)N(C)C[C@@H]2C)C3(C)C)n1` [Example E3, N-(2-ethoxypyrimidin-4-yl)-6,6-dimethyl-5-{[(2S,5R)-2,4,5-trimethylpiperazin-1-yl]carbonyl}-1,4,5,6-tetrahydropyrrolo[3,4-c]pyrazol-3-amine], for which the Ki was 13.1 nM. As for `CCCc1ncc(F)c(Nc2n[nH]c3c2CN(C(=O)N2CC(C)(C)N(C)C[C@@H]2C)C3(C)C)n1` [Example I1, N-(5-fluoro-2-propylpyrimidin-4-yl)-6,6-dimethyl-5-{[(2S)-2,4,5,5-tetramethylpiperazin-1-yl]carbonyl}-1,4,5,6-tetrahydropyrrolo[3,4-c]pyrazol-3-amine], the figure is 1.73 nM. As for `Cc1cc(C)nc(Nc2n[nH]c3c2CN(C(=O)N2C[C@@H](C)N(CC4CCOCC4)C[C@@H]2C)C3(C)C)n1` [Example J16, N-(4,6-dimethylpyrimidin-2-yl)-5-{[(2S,5R)-2,5-dimethyl-4-(tetrahydro-2H-pyran-4-ylmethyl)piperazin-1-yl]carbonyl}-6,6-dimethyl-1,4,5,6-tetrahydropyrrolo[3,4-c]pyrazol-3-amine], the figure is 11.1 nM; as for `C[C@H]1CN(C)C(C)(C)CN1C(=O)N1Cc2c(Nc3ccnc(N(C)C)n3)n[nH]c2C1(C)C` [Example A9, N^4-(6,6-dimethyl-5-{[(2S)-2,4,5,5-tetramethylpiperazin-1-yl]carbonyl}-1,4,5,6-tetrahydropyrrolo[3,4-c]pyrazol-3-yl)-N^2,N^2-dimethylpyrimidine-2,4-diamine], 9.73 nM. As for `CC(C)Nc1ncc(F)c(Nc2n[nH]c3c2CN(C(=O)N2CC(C)(C)N(C)C[C@@H]2C)C3(C)C)n1` [Example A7, N^4-(6,6-dimethyl-5-{[(2S)-2,4,5,5-tetramethylpiperazin-1-yl]carbonyl}-1,4,5,6-tetrahydropyrrolo[3,4-c]pyrazol-3-yl)-5-fluoro-N^2-isopropylpyrimidine-2,4-diamine], the figure is 3.81 nM. Consider `COc1ccnc(Nc2n[nH]c3c2CN(C(=O)N2C[C@@H](C)N(CC4CCOCC4)C[C@@H]2C)C3(C)C)n1` [Example J14, 5-{[(2S,5R)-2,5-dimethyl-4-(tetrahydro-2H-pyran-4-ylmethyl)piperazin-1-yl]carbonyl}-N-(4-methoxypyrimidin-2-yl)-6,6-dimethyl-1,4,5,6-tetrahydropyrrolo[3,4-c]pyrazol-3-amine], for which the Ki was 19.2 nM.

For `Cc1ncc(F)c(Nc2n[nH]c3c2CN(C(=O)N2C[C@@H](C)N(C4CCOCC4)C[C@@H]2C)C3(C)C)n1` [Example H7, 5-{[(2S,5R)-2,5-dimethyl-4-(tetrahydro-2H-pyran-4-yl)piperazin-1-yl]carbonyl}-N-(5-fluoro-2-methylpyrimidin-4-yl)-6,6-dimethyl-1,4,5,6-tetrahydropyrrolo[3,4-c]pyrazol-3-amine], the Ki was found to be 22 nM.

For `CC(C)CNc1ncc(F)c(Nc2n[nH]c3c2CN(C(=O)N2CC(C)(C)N(C)C[C@@H]2C)C3(C)C)n1` [Example A4, N^4-(6,6-dimethyl-5-{[(2S)-2,4,5,5-tetramethylpiperazin-1-yl]carbonyl}-1,4,5,6-, tetrahydropyrrolo[3,4-c]pyrazol-3-yl)-5-fluoro-N^2-isobutylpyrimidine-2,4-diamine acetate salt], the Ki stood at 37.6 nM. As for `Cc1ncc(F)c(Nc2n[nH]c3c2CN(C(=O)N2C[C@@H](C)N(CCCO)C[C@@H]2C)C3(C)C)n1` (stereo in doubt) [AA5, [3-(5-fluoro-2-methyl-pyrimidin-4-ylamino)-6,6-dimethyl-4,6-dihydro-1H-pyrrolo[3,4-c]pyrazol-5-yl]-[4-(3-hydroxy-propyl)-2,5-dimethyl-piperazin-1-yl]-methanone], the figure is 29.1 nM; as for `Cc1ncc(F)c(Nc2n[nH]c3c2CN(C(=O)N2C[C@@H](C)N(C)C[C@@H]2C)C3(C)C)n1` [Example H2, N-(5-fluoro-2-methylpyrimidin-4-yl)-6,6-dimethyl-5-{[(2S,5R)-2,4,5-trimethylpiperazin-1-yl]carbonyl}-1,4,5,6-tetrahydropyrrolo[3,4-c]pyrazol-3-amine], 18.1 nM; as for `C[C@@H]1CN(C(=O)N2Cc3c(Nc4nc(OCC(F)(F)F)ncc4F)n[nH]c3C2(C)C)[C@@H](C)CN1C` [Example K7, N-[5-fluoro-2-(2,2,2-trifluoroethoxy)pyrimidin-4-yl]-6,6-dimethyl-5-{[(2S,5R)-2,4,5-trimethylpiperazin-1-yl]carbonyl}-1,4,5,6-tetrahydropyrrolo[3,4-c]pyrazol-3-amine], 0.165 nM.

Regarding `COCCCOc1ncc(F)c(Nc2n[nH]c3c2CN(C(=O)N2CC(C)(C)N(C)C[C@@H]2C)C3(C)C)n1` [Example K9, N-[5-fluoro-2-(3-methoxypropoxy)pyrimidin-4-yl]-6,6-dimethyl-5-{[(2S)-2,4,5,5-tetramethylpiperazin-1-yl]carbonyl}-1,4,5,6-tetrahydropyrrolo[3,4-c]pyrazol-3-amine], the Ki was determined as 12.8 nM.

Take `COc1ccnc(Nc2n[nH]c3c2CN(C(=O)N2C[C@@H](C)N(C4CCOCC4)C[C@@H]2C)C3(C)C)n1` [Example J11, 5-{[(2S,5R)-2,5-dimethyl-4-(tetrahydro-2H-pyran-4-yl)piperazin-1-yl]carbonyl}-N-(4-methoxypyrimidin-2-yl)-6,6-dimethyl-1,4,5,6-tetrahydropyrrolo[3,4-c]pyrazol-3-amine]: the Ki is < 10 nM.

As to `C[C@H]1CN(C)C(C)(C)CN1C(=O)N1Cc2c(Nc3nc(OCC(F)(F)F)ncc3F)n[nH]c2C1(C)C` [Example K8, N-[5-fluoro-2-(2,2,2-trifluoroethoxy)pyrimidin-4-yl]-6,6-dimethyl-5-{[(2S)-2,4,5,5-tetramethylpiperazin-1-yl]carbonyl}-1,4,5,6-tetrahydropyrrolo[3,4-c]pyrazol-3-amine], the Ki turned out to be 0.181 nM. Take `Cc1ncc(F)c(Nc2n[nH]c3c2CN(C(=O)N2CC(CCO)N(C)C[C@@H]2C)C3(C)C)n1` (single isomer, unassigned) [Example H10]: the Ki was found to be 180 nM. As for `Cc1ncc(F)c(Nc2n[nH]c3c2CN(C(=O)N2C[C@@H](C)N(CC4CCOCC4)C[C@@H]2C)C3(C)C)n1` [Example H6, 5-{[(2S,5R)-2,5-dimethyl-4-(tetrahydro-2H-pyran-4-ylmethyl)piperazin-1-yl]carbonyl}-N-(5-fluoro-2-methylpyrimidin-4-yl)-6,6-dimethyl-1,4,5,6-tetrahydropyrrolo[3,4-c]pyrazol-3-amine], the figure is 14.9 nM; as for `Cc1ccc(F)c(Nc2n[nH]c3c2CN(C(=O)N2C[C@@H]4CCCN4C[C@@H]2C)C3(C)C)n1` [Example J5, N-(3-fluoro-6-methylpyridin-2-yl)-6,6-dimethyl-5-{[(3S,8aS)-3-methylhexahydropyrrolo[1,2-a]pyrazin-2(1H)-yl]carbonyl}-1,4,5,6-tetrahydropyrrolo[3,4-c]pyrazol-3-amine], 6.43 nM; as for `CCOc1ncc(F)c(Nc2n[nH]c3c2CN(C(=O)N2C[C@@H](C)N(CCC(F)(F)F)C[C@@H]2C)C3(C)C)n1` [Example K18, 5-{[(2S,5R)-2,5-dimethyl-4-(3,3,3-trifluoropropyl)piperazin-1-yl]carbonyl}-N-(2-ethoxy-5-fluoropyrimidin-4-yl)-6,6-dimethyl-1,4,5,6-tetrahydropyrrolo[3,4-c]pyrazol-3-amine], 25.3 nM. Consider `CCNc1nccc(Nc2n[nH]c3c2CN(C(=O)N2CC(C)(C)N(C)C[C@@H]2C)C3(C)C)n1` [Example A8, N^4-(6,6-dimethyl-5-{[(2S)-2,4,5,5-tetramethylpiperazin-1-yl]carbonyl}-1,4,5,6-tetrahydropyrrolo[3,4-c]pyrazol-3-yl)-N^2-ethylpyrimidine-2,4-diamine], for which the Ki is 3.39 nM. `CCOc1ncc(F)c(Nc2n[nH]c3c2CN(C(=O)N2C[C@@H](C)N(C)C[C@@H]2C)C3(C)C)n1` [Example K1, N-(2-ethoxy-5-fluoropyrimidin-4-yl)-6,6-dimethyl-5-{[(2S,5R)-2,4,5-trimethylpiperazin-1-yl]carbonyl}-1,4,5,6-tetrahydropyrrolo[3,4-c]pyrazol-3-amine]: the Ki is 1.12 nM. As for `CCOc1ncc(F)c(Nc2n[nH]c3c2CN(C(=O)N2C[C@@H](C)N(CC4CCOCC4)C[C@@H]2C)C3(C)C)n1` [Example K19, 5-{[(2S,5R)-2,5-dimethyl-4-(tetrahydro-2H-pyran-4-ylmethyl)piperazin-1-yl]carbonyl}-N-(2-ethoxy-5-fluoropyrimidin-4-yl)-6,6-dimethyl-1,4,5,6-tetrahydropyrrolo[3,4-c]pyrazol-3-amine], the figure is < 10 nM. As for `Cc1cccc(Nc2n[nH]c3c2CN(C(=O)N2C[C@@H](C)N(C)C[C@@H]2C)C3(C)C)n1` [Example J8, 6,6-dimethyl-N-(6-methylpyridin-2-yl)-5-{[(2S,5R)-2,4,5-trimethylpiperazin-1-yl]carbonyl}-1,4,5,6-tetrahydropyrrolo[3,4-c]pyrazol-3-amine], the figure is 32 nM; as for `Cc1ncc(F)c(Nc2n[nH]c3c2CN(C(=O)C2(F)CCN(C)CC2)C3(C)C)n1` [Example F1, 5-[(4-fluoro-1-methylpiperidin-4-yl)carbonyl]-N-(5-fluoro-2-methylpyrimidin-4-yl)-6,6-dimethyl-1,4,5,6-tetrahydropyrrolo[3,4-c]pyrazol-3-amine], 39.9 nM. As for `CCc1ncc(F)c(Nc2n[nH]c3c2CN(C(=O)C2(F)CCN(C)CC2)C3(C)C)n1` [Example G1, N-(2-ethyl-5-fluoropyrimidin-4-yl)-5-[(4-fluoro-1-methylpiperidin-4-yl)carbonyl]-6,6-dimethyl-1,4,5,6-tetrahydropyrrolo[3,4-c]pyrazol-3-amine], the figure is 25.4 nM.
